Data reported in patent publication US11046949B2, “Method and system for microbial lysis using periodates” (priority 2014, dated 2021).
“And” between values parts separate entries of the source, which are not always exact repeats. Equal entries are not always repeated. Where two headings read alike, the source gives them in different places.

Tests used:
[1] = system: Bacillus subtilis vegetative cells; experiment: DNA release from B. subtilis by per-halogenated and oxidizing compounds, Acid-Hydrolysis HPLC Method; assay type: cell-based; settings: 70° C. 20 minutes; for % DNA release / AUC, Ade: 15 mM compound in BD buffer, samples 1-3; for % DNA release (Average) / AUC, Ade (Average): 15 mM compound, average of 3
Mycobacteria = experiment: Release of DNA from Mycobacteria by solvents, detergents, formic acid, borate; assay type: cell-based, Mycobacterium; settings: solvents to strip waxy cell wall component
Description: The hardy cell wall of Mycobacterium consists of a thick, waxy, hydrophobic, mycolate layer and a peptidoglycan layer held together by polysaccharide. […] Similarly, various detergents (e.g., SDS), formic acid, and borate were tested at elevated temperatures.

C. difficile spores = assay type: cell-based, Clostridium difficile
M. smegmatis [2] = assay type: cell-based, Mycobacterium smegmatis; settings: BD2 buffer
B. thuringiensis [3] = assay type: cell-based, Bacillus thuringiensis; settings: periodate +, BD2 buffer
S. aureus [4] = assay type: cell-based, Staphylococcus aureus; settings: BD2 buffer
P. aeruginosa [5] = assay type: cell-based, Pseudomonas aeruginosa; settings: BD2 buffer
M. catarrhalis [6] = assay type: cell-based, Moraxella catarrhalis; settings: BD2 buffer
K. pneumonia [7] = assay type: cell-based, Klebsiella pneumonia; settings: periodate +, BD2 buffer
M. smegmatis [8] = assay type: cell-based, Mycobacterium smegmatis; settings: periodate +, BD2 buffer
F. philomiragia [9] = assay type: cell-based, Francisella philomiragia; settings: BD2 buffer
M. catarrhalis [10] = assay type: cell-based, Moraxella catarrhalis; settings: periodate +, BD2 buffer
Mycobacterium smegmatis = experiment: NPI-mediated release of DNA from M. smegmatis as a function of pH, Acid-Extraction HPLC Method
[11] = molecular target: Pancreatic Ribonuclease A (Bos taurus, UniProt P61823); experiment: Pure pancreatic ribonuclease A treated with periodate, SDS-PAGE; settings: 15 mM periodate, 70° C. 15 minutes, FIG. 12
B. thuringiensis [12] = assay type: cell-based, Bacillus thuringiensis; settings: BD2 buffer
Y. enterocolitica [13] = assay type: cell-based, Yersinia enterocolitica; settings: BD2 buffer
[14] = system: B. anthracis Sterne Strain spores; assay type: cell-based, Bacillus anthracis; settings: Post-Periodate: BD2 buffer, 30 mM NPI, 70° C. 20 minutes, FIG. 15
F. philomiragia [15] = assay type: cell-based, Francisella philomiragia; settings: periodate +, BD2 buffer
[16] = system: M. tuberculosis in TB-positive sputum; experiment: TB-positive sputum, qPCR targeting RD4 MTBC region of difference; assay type: cell-based, Mycobacterium tuberculosis
C. albicans [17] = settings: periodate +, BD2 buffer
P. aeruginosa [18] = assay type: cell-based, Pseudomonas aeruginosa; settings: periodate +, BD2 buffer
[19] = molecular target: pancreatic ribonuclease A (RNase A) (Bos taurus, UniProt P61823); experiment: Inhibition of RNase A by pre-treatment with periodate, HeLa RNA integrity on agarose gel; settings: RNase A pre-incubated with 15 mM periodate, 70° C. 15 minutes, FIG. 14
[20] = system: attenuated M. tuberculosis (aMTB) spiked in saliva; assay type: cell-based, Mycobacterium tuberculosis
K. pneumonia [21] = assay type: cell-based, Klebsiella pneumonia; settings: BD2 buffer
S. aureus [22] = assay type: cell-based, Staphylococcus aureus; settings: periodate +, BD2 buffer
Y. enterocolitica [23] = assay type: cell-based, Yersinia enterocolitica; settings: periodate +, BD2 buffer
[24] = system: C. botulinum Type B spores; assay type: cell-based, Clostridium botulinum; settings: Post-Periodate: BD2 buffer, 30 mM NPI, 70° C. 20 minutes, FIG. 16
C. albicans [25] = assay type: cell-based, Candida albicans; settings: BD2 buffer
[26] = system: attenuated MTB H37Ra (aMTB) spiked in sputum; experiment: DNA isolated from aMTB-spiked sputum using swabs and periodate, RD4 rtPCR
[27] = system: Mycobacterium smegmatis lysate proteins; experiment: M. smegmatis lysate treated with periodate, SDS-PAGE; settings: 7.5 and 15 mM periodate, 70° C. 15 minutes, FIG. 13

Sequence of Pancreatic Ribonuclease A (P61823 27-150): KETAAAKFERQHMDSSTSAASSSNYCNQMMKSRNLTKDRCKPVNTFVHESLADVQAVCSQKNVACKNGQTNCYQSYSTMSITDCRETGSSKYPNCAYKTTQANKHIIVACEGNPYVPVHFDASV
Sequence of pancreatic ribonuclease A (RNase A) (P61823 27-150): as above

SMILES: [Na+].[O-][Cl+3]([O-])([O-])[O-] [Perchlorate, sodium perchlorate, reference compound]
- % DNA release [1]: 6.2% and 6.7% and 6.4%
- AUC, Ade [1]: 79 and 85 and 81
- % DNA release (Average) [1]: 6.4%
- AUC, Ade (Average) [1]: 81.7

SMILES: C[S+](C)[O-] [DMSO]
- release of DNA (Mycobacteria): no increased release of DNA was observed

SMILES: O=S(=O)([O-])OOS(=O)(=O)[O-].[Na+].[Na+] [Persulfate, sodium persulfate]
- % DNA release [1]: 15.9% and 14.7% and 14.3%
- AUC, Ade [1]: 202 and 187 and 182
- % DNA release (Average) [1]: 15.0%
- AUC, Ade (Average) [1]: 190.3
- % DNA release (Average) ([1]; listed as sodium persulfate): 15%

SMILES: [O-][I+3]([O-])([O-])O [Periodate, sodium (meta)periodate]
- spore viability by culture (C. difficile spores): no C. botulinum or C. difficile spores were viable by culture
- % DNA Released (M. smegmatis [2]; 35° C. 20 minutes): 49.7%
- % DNA Released (M. smegmatis [2]; 70° C. 20 minutes): 85.2%
- % DNA Released (M. smegmatis [2]; 80° C. 20 minutes): 80.6%
- Ct values (B. thuringiensis [3]; 35° C. 20 minutes): 15.5
- Ct values (B. thuringiensis [3]; 70° C. 20 minutes): 10.3
- Ct values (B. thuringiensis [3]; 80° C. 20 minutes): 10.8
- % DNA Released (S. aureus [4]; 35° C. 20 minutes): 18.4%
- % DNA Released (S. aureus [4]; 70° C. 20 minutes): 24.8%
- % DNA Released (S. aureus [4]; 80° C. 20 minutes): 26.7%
- % DNA Released (P. aeruginosa [5]; 35° C. 20 minutes): 38.6%
- % DNA Released (P. aeruginosa [5]; 70° C. 20 minutes): 117.8%
- % DNA Released (P. aeruginosa [5]; 80° C. 20 minutes): 98.2%
- % DNA Released (M. catarrhalis [6]; 35° C. 20 minutes): 77.1%
- % DNA Released (M. catarrhalis [6]; 70° C. 20 minutes): 143.6%
- % DNA Released (M. catarrhalis [6]; 80° C. 20 minutes): 140.5%
- Ct values (K. pneumonia [7]; 35° C. 20 minutes): 24.3
- Ct values (K. pneumonia [7]; 70° C. 20 minutes): 9.3
- Ct values (K. pneumonia [7]; 80° C. 20 minutes): 9.6
- Ct values (M. smegmatis [8]; 35° C. 20 minutes): 22.8
- Ct values (M. smegmatis [8]; 70° C. 20 minutes): 18.1
- Ct values (M. smegmatis [8]; 80° C. 20 minutes): 17.9
- % DNA release [1]: 46.6% and 48.0% and 37.4%
- AUC, Ade [1]: 594 and 611 and 476
- % DNA release (Average) [1]: 44.0%
- AUC, Ade (Average) [1]: 560.3
- % DNA release (Average) ([1]; listed as sodium (meta)periodate): 44%
- % DNA Released (F. philomiragia [9]; 35° C. 20 minutes): 65.3%
- % DNA Released (F. philomiragia [9]; 70° C. 20 minutes): 89.4%
- % DNA Released (F. philomiragia [9]; 80° C. 20 minutes): 92.0%
- Ct values (M. catarrhalis [10]; 35° C. 20 minutes): 16.3
- Ct values (M. catarrhalis [10]; 70° C. 20 minutes): 12.7
- Ct values (M. catarrhalis [10]; 80° C. 20 minutes): 10.8
- percentage of total DNA released (Mycobacterium smegmatis; 6 mM NPI in PAB buffer solutions pH 3.7-9.4, 70° C. 20 minutes): 37.4-59.4%
- increase of percentage of total DNA released vs no NPI (Mycobacterium smegmatis; 6 mM NPI, 70° C. 20 minutes): approximately 9 fold
- quantity of full-length purified RNase protein [11]: decreased
- % DNA Released (B. thuringiensis [12]; 35° C. 20 minutes): 42.1%
- % DNA Released (B. thuringiensis [12]; 70° C. 20 minutes): 103.5%
- % DNA Released (B. thuringiensis [12]; 80° C. 20 minutes): 107.7%
- % DNA Released (Y. enterocolitica [13]; 35° C. 20 minutes): 52.1%
- % DNA Released (Y. enterocolitica [13]; 70° C. 20 minutes): 80.8%
- % DNA Released (Y. enterocolitica [13]; 80° C. 20 minutes): 89.5%
- spore viability by culture [14]: dramatically reduced the viability
- Ct values (F. philomiragia [15]; 35° C. 20 minutes): 15.3
- Ct values (F. philomiragia [15]; 70° C. 20 minutes): 15.5
- Ct values (F. philomiragia [15]; 80° C. 20 minutes): 16.0
- Real-time PCR Ct value (in duplicate) [16]: 32/32 and 41/33 and 23/23 and 33/33 and 19/19 and 24/25
- Ct values (C. albicans [17]; 35° C. 20 minutes): 27.1
- Ct values (C. albicans [17]; 70° C. 20 minutes): 15.2
- Ct values (C. albicans [17]; 80° C. 20 minutes): 15.7
- Ct values (P. aeruginosa [18]; 35° C. 20 minutes): 10.8
- Ct values (P. aeruginosa [18]; 70° C. 20 minutes): 7.8
- Ct values (P. aeruginosa [18]; 80° C. 20 minutes): 8.8
- RNase A activity on HeLa ribosomal RNA [19]: ribosomal RNA was no longer degraded by RNase A
- Growth (up to 42 days) [20]: NEG
- Time to Positive [20]: >42 days
- growth on LJ medium [20]: no growth of any microorganism was observed
- % DNA Released (K. pneumonia [21]; 35° C. 20 minutes): 49.0%
- % DNA Released (K. pneumonia [21]; 70° C. 20 minutes): 119.2%
- % DNA Released (K. pneumonia [21]; 80° C. 20 minutes): 124.4%
- Ct values (S. aureus [22]; 35° C. 20 minutes): 15.5
- Ct values (S. aureus [22]; 70° C. 20 minutes): 13.7
- Ct values (S. aureus [22]; 80° C. 20 minutes): 15.0
- Ct values (Y. enterocolitica [23]; 35° C. 20 minutes): 15.5
- Ct values (Y. enterocolitica [23]; 70° C. 20 minutes): 12.0
- Ct values (Y. enterocolitica [23]; 80° C. 20 minutes): 11.4
- spore viability by culture [24]: no C. botulinum or C. difficile spores were viable by culture
- % DNA Released (C. albicans [25]; 35° C. 20 minutes): 105.4%
- % DNA Released (C. albicans [25]; 70° C. 20 minutes): 155.3%
- % DNA Released (C. albicans [25]; 80° C. 20 minutes): 156.4%
- Periodate efficiency (Ct Swab 6 (−) Ct average) ([26]; 1:10 dilution of DNA, Copan): 3.78
- Periodate efficiency (Ct Swab 6 (−) Ct average) ([26]; 1:10 dilution of DNA, Puritan): 5.72
- Ct value (1:10 dilution of DNA) Copan, Average ([26]; (+) periodate): 27.55
- Ct value (1:10 dilution of DNA) Puritan, Average ([26]; (+) periodate): 27.11
- Ct value (neat DNA) Copan, Average ([26]; (+) periodate): 24.02
- Ct value (neat DNA) Puritan, Average ([26]; (+) periodate): 23.69
- Ct value (1:10 dilution of DNA) Copan ([26]; (+) periodate 30 mM, Swabs 1-5): 26.49 and 28.11 and 29.12 and 33.99 and 26.47
- Ct value (1:10 dilution of DNA) Puritan ([26]; (+) periodate 30 mM, Swabs 1-5): 26.24 and 27.74 and 26.60 and 27.29 and 27.67
- Ct value (neat DNA) Copan ([26]; (+) periodate 30 mM, Swabs 1-5): 22.99 and 24.60 and 25.55 and 30 .09 and 22.93
- Ct value (neat DNA) Puritan ([26]; (+) periodate 30 mM, Swabs 1-5): 22.67 and 24.19 and 23.28 and 23.93 and 24.36
- Periodate efficiency (Ct Swab 6 (−) Ct average) ([26]; neat DNA, Copan): 3.73
- Periodate efficiency (Ct Swab 6 (−) Ct average) ([26]; neat DNA, Puritan): 3.93
- increase in the amount of aMTB-specific DNA recovered per swab ([26]; periodate included vs not included): > 10 fold
- protein bands in cell-free lysate [27]: some protein bands selectively decreased or disappeared altogether

SMILES: O.O.O.O.[Na+].[O-]B1OO1 [Perborate, sodium perborate tetrahydrate, reference compound]
- % DNA release [1]: 5.5% and 6.3% and 6.4%
- AUC, Ade [1]: 70 and 80 and 82
- % DNA release (Average) [1]: 6.1%
- AUC, Ade (Average) [1]: 77.3
